Data as given in ChEMBL document CHEMBL1208667, “Permanent positive charge strongly influences DNA/RNA binding and antiproliferative activity of urea-phenanthridinium conjugates” (Eur J Med Chem, 2010).
Calls of active or inactive are those of the source. No cut-off for these calls is given here.

Legend:
Calf thymus DNA [1] = assay: Binding affinity to calf thymus DNA in citric acid buffer at pH 5 by fluorescence titration assay relative to control; type: nucleic-acid assay; conditions: Bos taurus
Calf thymus DNA [2] = assay: Binding affinity to calf thymus DNA in citric acid buffer at pH 5 by fluorescence titration assay; type: nucleic-acid assay; conditions: Bos taurus
Nucleic Acid [3] = assay: Binding affinity to poly dA-poly dT RNA in citric acid buffer at pH 5 by fluorescence titration assay; type: nucleic-acid assay
Nucleic Acid [4] = assay: Binding affinity to poly A-poly U RNA in citric acid buffer at pH 5 by fluorescence titration assay relative to control; type: nucleic-acid assay
Nucleic Acid [5] = assay: Binding affinity to poly A-poly U RNA in citric acid buffer at pH 5 by fluorescence titration assay; type: nucleic-acid assay
Nucleic Acid [6] = assay: Binding affinity to poly G-poly C RNA in citric acid buffer at pH 5 by fluorescence titration assay; type: nucleic-acid assay
Calf thymus DNA [7] = assay: Binding affinity to calf thymus DNA in sodium cacodylate buffer at pH 7 by fluorescence titration assay relative to control; type: nucleic-acid assay; conditions: Bos taurus
Calf thymus DNA [8] = assay: Binding affinity to calf thymus DNA in sodium cacodylate buffer at pH 7 by fluorescence titration assay; type: nucleic-acid assay; conditions: Bos taurus
Nucleic Acid [9] = assay: Binding affinity to poly dA-poly dT RNA in sodium cacodylate buffer at pH 7 by fluorescence titration assay relative to control; type: nucleic-acid assay
Nucleic Acid [10] = assay: Binding affinity to poly A-poly U RNA in sodium cacodylate buffer at pH 7 by fluorescence titration assay relative to control; type: nucleic-acid assay
Nucleic Acid [11] = assay: Binding affinity to poly A-poly U RNA in sodium cacodylate buffer at pH 7 by fluorescence titration assay; type: nucleic-acid assay
Nucleic Acid [12] = assay: Binding affinity to poly G-poly C RNA in sodium cacodylate buffer at pH 7 by fluorescence titration assay relative to control; type: nucleic-acid assay
Nucleic Acid [13] = assay: Binding affinity to poly G-poly C RNA in sodium cacodylate buffer at pH 7 by fluorescence titration assay; type: nucleic-acid assay
Nucleic Acid [14] = assay: Binding affinity to poly dA-poly dT RNA in sodium cacodylate buffer at pH 7 by UV-v titration assay; type: nucleic-acid assay
Calf thymus DNA [15] = assay: Binding affinity to calf thymus DNA assessed as change in melting temperature at compound to DNA molar ratio of 0.2 at pH 5 by thermal denaturation assay; type: nucleic-acid assay; conditions: Bos taurus
Calf thymus DNA [16] = assay: Binding affinity to calf thymus DNA assessed as change in melting temperature at compound to DNA molar ratio of 0.3 at pH 5 by thermal denaturation assay; type: nucleic-acid assay; conditions: Bos taurus
Nucleic Acid [17] = assay: Binding affinity to […] assessed as change in melting temperature at compound to DNA molar ratio of 0.2 at pH 5 by thermal denaturation assay; type: nucleic-acid assay
Nucleic Acid [18] = assay: Binding affinity to poly A-poly U RNA assessed as change in melting temperature at compound to DNA molar ratio of 0.2 at pH 5 by thermal denaturation assay; type: nucleic-acid assay
Calf thymus DNA [19] = assay: Binding affinity to calf thymus DNA assessed as change in melting temperature at compound to DNA molar ratio of 0.3 at pH 7 by thermal denaturation assay; type: nucleic-acid assay; conditions: Bos taurus
Nucleic Acid [20] = assay: Binding affinity to […] assessed as change in melting temperature at compound to DNA molar ratio of 0.2 at pH 7 by thermal denaturation assay; type: nucleic-acid assay
Nucleic Acid [21] = assay: Binding affinity to poly A-poly U RNA assessed as change in melting temperature at compound to DNA molar ratio of 0.3 at pH 7 by thermal denaturation assay; type: nucleic-acid assay
Calf thymus DNA [22] = assay: Binding affinity to calf thymus DNA at compound to DNA molar ratio of 0.1 to 0.5 at pH 5 by circular dichroism; type: nucleic-acid assay; conditions: Bos taurus
Nucleic Acid [23] = assay: Binding affinity to poly A-poly U RNA at compound to DNA molar ratio of 0.1 to 0.5 at pH 5 by circular dichroism; type: nucleic-acid assay
Nucleic Acid [24] = assay: Binding affinity to poly A-poly U RNA at compound to DNA molar ratio of 0.1 to 0.5 at pH 7 by circular dichroism; type: nucleic-acid assay
MIA PaCa-2 [25] = assay: Cytotoxicity against human MIAPaCa2 cells at 100 uM after 72 hrs by MTT assay; type: functional; conditions: MIA PaCa-2, 72 h
MIA PaCa-2 [26] = assay: Cytotoxicity against human MIAPaCa2 cells after 72 hrs by MTT assay; type: functional, cell-based
MIA PaCa-2 [27] = assay: Cytotoxicity against human MIAPaCa2 cells at 0.1 to 100 uM after 72 hrs by MTT assay; type: functional, cell-based
HEp-2 = assay: Cytotoxicity against human Hep2 cells at 0.1 to 100 uM after 72 hrs by MTT assay; type: functional, cell-based
HT-29 = assay: Cytotoxicity against human HT-29 cells at 0.1 to 100 uM after 72 hrs by MTT assay; type: functional, cell-based
Nucleic Acid [28] = assay: Binding affinity to AMP in citric acid buffer at pH 5 by fluorescence titration assay relative to control; type: nucleic-acid assay
Nucleic Acid [29] = assay: Binding affinity to GMP in citric acid buffer at pH 5 by fluorescence titration assay relative to control; type: nucleic-acid assay
Nucleic Acid [30] = assay: Binding affinity to CMP in citric acid buffer at pH 5 by fluorescence titration assay relative to control; type: nucleic-acid assay
Nucleic Acid [31] = assay: Binding affinity to UMP in citric acid buffer at pH 5 by fluorescence titration assay relative to control; type: nucleic-acid assay
Nucleic Acid [32] = assay: Binding affinity to GMP in sodium cacodylate buffer at pH 7 by fluorescence titration assay relative to control; type: nucleic-acid assay
Calf thymus DNA [33] = assay: Binding affinity to calf thymus DNA assessed as melting temperature at compound to DNA molar ratio of 0.2 at pH 5 by thermal denaturation assay; type: nucleic-acid assay; conditions: Bos taurus
Calf thymus DNA [34] = assay: Binding affinity to calf thymus DNA assessed as melting temperature at compound to DNA molar ratio of 0.3 at pH 5 by thermal denaturation assay; type: nucleic-acid assay; conditions: Bos taurus
Nucleic Acid [35] = assay: Binding affinity to […] assessed as melting temperature at compound to DNA molar ratio of 0.3 at pH 5 by thermal denaturation assay; type: nucleic-acid assay
Nucleic Acid [36] = assay: Binding affinity to poly A-poly U RNA assessed as melting temperature at compound to DNA molar ratio of 0.2 at pH 5 by thermal denaturation assay; type: nucleic-acid assay
Calf thymus DNA [37] = assay: Binding affinity to calf thymus DNA assessed as melting temperature at compound to DNA molar ratio of 0.2 at pH 7 by thermal denaturation assay; type: nucleic-acid assay; conditions: Bos taurus
Calf thymus DNA [38] = assay: Binding affinity to calf thymus DNA assessed as melting temperature at compound to DNA molar ratio of 0.3 at pH 7 by thermal denaturation assay; type: nucleic-acid assay; conditions: Bos taurus
Nucleic Acid [39] = assay: Binding affinity to […] assessed as melting temperature at compound to DNA molar ratio of 0.2 at pH 7 by thermal denaturation assay; type: nucleic-acid assay
Nucleic Acid [40] = assay: Binding affinity to […] assessed as melting temperature at compound to DNA molar ratio of 0.3 at pH 7 by thermal denaturation assay; type: nucleic-acid assay
Nucleic Acid [41] = assay: Binding affinity to poly A-poly U RNA assessed as melting temperature at compound to DNA molar ratio of 0.2 at pH 7 by thermal denaturation assay; type: nucleic-acid assay
Nucleic Acid [42] = assay: Binding affinity to poly A-poly U RNA assessed as biphasic transitions of change in melting temperature at compound to DNA molar ratio of 0.2 at pH 5 by thermal denaturation assay; type: nucleic-acid assay
Nucleic Acid [43] = assay: Binding affinity to poly A-poly U RNA assessed as biphasic transitions of melting temperature at compound to DNA molar ratio of 0.2 at pH 5 by thermal denaturation assay; type: nucleic-acid assay

In the case of Cc1c2cc(NC(=O)NCCCCCCNC(=O)Nc3ccc4c(c3)c(C)[n+](C)c3ccccc43)ccc2c2ccccc2[n+]1C.O=S(=O)([O-])O.O=S(=O)([O-])O, the RFU (Calf thymus DNA [1]) is reported as 2.7, the log Ks (Calf thymus DNA [2]) is reported as over 7 and the log Ks (Nucleic Acid [3]) is reported as 6.1. For the same compound, the RFU (Nucleic Acid [4]) was 20, the log Ks (Nucleic Acid [5]) was 5.6 and the log Ks (Nucleic Acid [6]) was 5.5. The RFU (Calf thymus DNA [7]) was 1.8, the log Ks (Calf thymus DNA [8]) was 6.2 and the RFU (Nucleic Acid [9]) was 10.7. For the same compound, the RFU (Nucleic Acid [10]) was 15.8, the log Ks (Nucleic Acid [11]) was 5.4 and the RFU (Nucleic Acid [12]) was 0.3. For the same compound, the log Ks (Nucleic Acid [13]) was 6.2, the log Ks (Nucleic Acid [14]) was 5.6 and the ΔTm (Calf thymus DNA [15]) was 14 °C. For the same compound, the ΔTm (Calf thymus DNA [16]) was 15.7 °C, the ΔTm (Nucleic Acid [17]) was 9.7 °C and the ΔTm (Nucleic Acid [18]) was 2.2 °C. It also gave a ΔTm (Calf thymus DNA [19]) of 5.5 °C, a ΔTm (Nucleic Acid [20]) of 5.2 °C and a ΔTm (Nucleic Acid [21]) of 0 °C. For the same compound, the Activity (Calf thymus DNA [22]) was “Active”, the Activity (Nucleic Acid [23]) was “Active” and the Activity (Nucleic Acid [24]) was “Active”. The inhibition at 100 µM (MIA PaCa-2 [25]) was 43.1%, the Activity (MIA PaCa-2 [26]) was “Dose-dependent effect” and the Activity (MIA PaCa-2 [27]) was “Active”. The Activity (HEp-2) was “Active”, the Activity (HT-29) was “Active” and the RFU (Nucleic Acid [28]) was 3.8. It also gave an RFU (Nucleic Acid [29]) of 31.6, an RFU (Nucleic Acid [30]) of -15.3 and an RFU (Nucleic Acid [31]) of -11.5. For the same compound, the RFU (Nucleic Acid [32]) was 6.3, the Tm (Calf thymus DNA [33]) was 74.6 °C and the Tm (Calf thymus DNA [34]) was 76.3 °C. The Tm (Nucleic Acid [35]) was 60.4 °C, the Tm (Nucleic Acid [36]) was 83 °C and the Tm (Calf thymus DNA [37]) was 83.2 °C. The Tm (Calf thymus DNA [38]) was 84.8 °C, the Tm (Nucleic Acid [39]) was 70.1 °C and the Tm (Nucleic Acid [40]) was 71.3 °C. The Tm (Nucleic Acid [41]) was 51.5 °C, the ΔTm (Nucleic Acid [42]) was -1.2 °C and the Tm (Nucleic Acid [43]) was 31.4 °C.
